The supplement of paper PMC13380429

Columns and labels:
Conditions in all cases: 72 h
U2OS [1] = assay: relative viability EC50 (midpoint between 100% and the lowest measured viability); higher = less toxic
Caco-2 [2] = assay: as above
Calu-3 [3] = assay: as above
HepG2 [4] = assay: as above
U2OS [5] = assay: cell viability relative to DMSO; higher = less toxic
Caco-2 [6] = assay: as above
Calu-3 [7] = assay: as above
HepG2 [8] = assay: as above
U2OS [9] = assay: drug sensitivity score (DSS) for viability; higher = more toxic; extreme values may be limits of the assay
Caco-2 [10] = assay: as above
Calu-3 [11] = assay: as above
HepG2 [12] = assay: as above
Vero E6 [13] = assay: cell viability relative to DMSO; higher = less toxic
Vero E6 [14] = assay: drug sensitivity score (DSS) for viability; higher = more toxic; extreme values may be limits of the assay
Vero E6 [15] = assay: relative viability EC50 (midpoint between 100% and the lowest measured viability); higher = less toxic

SMILES | relative viability EC50 (U2OS [1]) [µM] | relative viability EC50 (Caco-2 [2]) [µM] | relative viability EC50 (Calu-3 [3]) [µM] | relative viability EC50 (HepG2 [4]) [µM] | cell viability (U2OS [5]; 1 nM) [%] | cell viability (U2OS [5]; 10 nM) [%] | cell viability (U2OS [5]; 100 nM) [%] | cell viability (U2OS [5]; 1000 nM) [%] | cell viability (U2OS [5]; 10000 nM) [%] | cell viability (Caco-2 [6]; 1 nM) [%] | cell viability (Caco-2 [6]; 10 nM) [%] | cell viability (Caco-2 [6]; 100 nM) [%] | cell viability (Caco-2 [6]; 1000 nM) [%] | cell viability (Caco-2 [6]; 10000 nM) [%] | cell viability (Calu-3 [7]; 1 nM) [%] | cell viability (Calu-3 [7]; 10 nM) [%] | cell viability (Calu-3 [7]; 100 nM) [%] | cell viability (Calu-3 [7]; 1000 nM) [%] | cell viability (Calu-3 [7]; 10000 nM) [%] | cell viability (HepG2 [8]; 1 nM) [%] | cell viability (HepG2 [8]; 10 nM) [%] | cell viability (HepG2 [8]; 100 nM) [%] | cell viability (HepG2 [8]; 1000 nM) [%] | cell viability (HepG2 [8]; 10000 nM) [%] | drug sensitivity score (U2OS [9]) | drug sensitivity score (Caco-2 [10]) | drug sensitivity score (Calu-3 [11]) | drug sensitivity score (HepG2 [12]) | cell viability (Vero E6 [13]; 1 nM) [%] | cell viability (Vero E6 [13]; 10 nM) [%] | cell viability (Vero E6 [13]; 100 nM) [%] | cell viability (Vero E6 [13]; 1000 nM) [%] | cell viability (Vero E6 [13]; 10000 nM) [%] | drug sensitivity score (Vero E6 [14]) | relative viability EC50 (Vero E6 [15]) [µM]
O=C(N/N=C/c1ccc([N+](=O)[O-])o1)c1cc([N+](=O)[O-])cc([N+](=O)[O-])c1O [nifursol] | > 10 | > 10 | > 10 | > 10 | 96.9 | 98.3 | 104 | 96.8 | 101 | 96.9 | 102 | 97.1 | 94.4 | 90.2 | 89.1 | 102 | 103 | 94.9 | 101 | 109 | 100 | 93 | 93.7 | 85.4 | 0 | 0 | 0 | 0.3 |  |  |  |  |  |  | 
O=C1NCCN1CCN1CCC(c2cn(-c3ccc(F)cc3)c3ccc(Cl)cc23)CC1 [sertindole] | > 10 |  | > 10 | 1.95 | 93.8 | 95.3 | 94.6 | 99.8 | 81 | 97.1 | 98.3 | 89.1 | 80.7 | 56.6 | 88.1 | 112 | 96.9 | 92.2 | 90 | 96.7 | 105 | 93.4 | 87.7 | 20.9 | 0.5 | 4.6 | 0.1 | 6.4 | 106 | 118 | 105 | 88.6 | 64.5 | 3.3 | 
CCCNS(=O)(=O)Nc1ncnc(OCCOc2ncc(Br)cn2)c1-c1ccc(Br)cc1 [macitentan] | > 10 | > 10 | > 10 | > 10 | 101 | 99.5 | 100 | 99.4 | 101 | 102 | 99.7 | 102 | 104 | 108 | 97.2 | 94.1 | 105 | 99 | 103 | 99.5 | 108 | 92.7 | 85.5 | 91 | 0 | 0 | 0 | 1.8 |  |  |  |  |  |  | 
Cc1ccc(NC(=O)c2cccc(C(C)(C)C#N)c2)cc1Nc1ccc2ncn(C)c(=O)c2c1 [AZ-628] | 1.81 |  |  | 0.148 | 98.7 | 98.6 | 93.2 | 89.7 | 43.3 | 95.8 | 102 | 98.2 | 81.9 | 63.8 |  |  |  |  |  | 97.5 | 102 | 69.9 | 22 | 16.6 | 4.8 | 3.7 |  | 18.1 | 101 | 102 | 102 | 84.2 | 52.4 | 4.8 | 
O=C(NCCCNc1nc(Nc2cccc(NC(=O)N3CCCC3)c2)ncc1I)c1cccs1 [BX-795] | 2.1 |  | > 10 | 3.26 | 104 | 99.3 | 100 | 90.9 | 31.2 | 98.2 | 98 | 105 | 92.6 | 63.7 | 93.4 | 97.3 | 102 | 107 | 89.2 | 96.9 | 90.4 | 96.7 | 101 | 34.7 | 5.3 | 2.9 | 0 | 3.5 | 97.8 | 98.4 | 97 | 101 | 61.7 | 1.8 | 
NC(=O)c1ccc(I)c([N+](=O)[O-])c1 [iniparib] | > 10 |  | > 10 | > 10 | 104 | 95.8 | 96.4 | 104 | 98.4 |  |  |  |  |  | 110 | 99 | 103 | 102 | 114 | 91.2 | 106 | 107 | 94.2 | 106 | 0 |  | 0 | 0 |  |  |  |  |  |  | 
CN(C)CCCn1cc(C2=C(c3c[nH]c4ccccc34)C(=O)NC2=O)c2ccccc21 |  | > 10 |  | 2.6 | 98.8 | 103 | 96.5 | 101 | 70.8 | 91 | 90.5 | 94.1 | 98 | 89.3 | 105 | 94.2 | 92 | 107 | 68.6 | 94.7 | 96.2 | 102 | 95.2 | 31 | 1.2 | 0 | 1.1 | 4.5 | 101 | 95.2 | 98.3 | 96.3 | 68.8 | 2 | 
Cc1c(C(=O)Nc2ccc(N3CCC(N4CCOCC4)CC3)c(C#N)c2)cnn1-c1ccc(Cl)cc1 [Y-320] |  |  |  | 1.42 |  |  |  |  |  | 104 | 93.8 | 103 | 87.5 | 74.9 | 103 | 103 | 90.1 | 89.6 | 69.9 | 106 | 109 | 105 | 77.4 | 23 |  | 2.4 | 2.2 | 7.6 | 104 | 104 | 106 | 104 | 74.6 | 0.8 | 
COc1cccc(OC)c1-c1cc(C(=O)N[C@@H](CC(C)C)C(=O)O)nn1-c1ccnc2cc(Cl)ccc12 [TC-NTR1-17] |  | > 10 | > 10 | > 10 |  |  |  |  |  | 103 | 99.6 | 100 | 91.7 | 99.9 | 117 | 102 | 93 | 104 | 104 | 102 | 106 | 97 | 106 | 106 |  | 0 | 0 | 0 |  |  |  |  |  |  | 
C=CCNc1nc(NCC=C)nc(N2CCN(C(c3ccc(F)cc3)c3ccc(F)cc3)CC2)n1 [almitrine] | > 10 | > 10 | > 10 |  | 102 | 96.1 | 99.4 | 94.6 | 97.9 | 91.3 | 79.4 | 102 | 88.2 | 87.8 | 111 | 96.2 | 96.5 | 92 | 98.2 | 98.8 | 92.6 | 80.9 | 77.9 | 61 | 0 | 0.6 | 0 | 6.1 | 91.7 | 107 | 89.2 | 95.4 | 91.2 | 0.4 | > 10
OCCCCO [1,4-butanediol] | > 10 | > 10 | > 10 |  | 101 | 108 | 96.8 | 111 | 97.8 | 98.6 | 112 | 119 | 107 | 102 | 89.2 | 98.4 | 89.4 | 94 | 93.7 | 90.8 | 97.9 | 95.7 | 105 | 74.4 | 0 | 0 | 0 | 0.7 | 102 | 102 | 100 | 104 | 93.1 | 0 | > 10
C[C@@H]1CCO[C@H]2Cn3cc(C(=O)NCc4ccc(F)cc4F)c(=O)c(O)c3C(=O)N12 [dolutegravir] | > 10 | > 10 | > 10 |  | 104 | 103 | 104 | 95.6 | 98.5 | 102 | 94.4 | 97.6 | 97.7 | 88.2 | 117 | 113 | 101 | 91.1 | 105 | 101 | 114 | 107 | 100 | 57.6 | 0 | 0.1 | 0 | 2.1 | 97.3 | 99.7 | 97 | 100 | 81.9 | 0.4 | > 10
C[C@H](c1ccc2ccc(OC3CCC(C(F)(F)F)CC3)c(C(F)(F)F)c2c1)N1C2CCC1CC(C(=O)O)C2 (some centres not stated) [autotaxin-modulator-1] | > 10 | > 10 | > 10 |  | 93.3 | 95.9 | 94.3 | 95.1 | 83.7 | 105 | 91.2 | 96.1 | 96.6 | 83.2 | 114 | 97.6 | 100 | 106 | 96.2 | 90.4 | 91 | 105 | 96 | 71.9 | 0.1 | 0.7 | 0 | 1.8 | 99.2 | 103 | 96.4 | 93.8 | 89 | 0 | > 10
CCS(=O)(=O)N(Cc1cccnc1)c1cccc(-c2ccc(C#N)cc2)c1 [CBiPES] | > 10 | > 10 | > 10 |  | 104 | 97.2 | 103 | 98.1 | 94.6 | 100 | 99.2 | 98.1 | 92.6 | 76.4 | 101 | 96.5 | 97.1 | 96.8 | 112 | 98.5 | 96.3 | 93.7 | 105 | 56.7 | 0 | 1.6 | 0 | 1.9 | 103 | 96.7 | 101 | 96.4 | 85.9 | 0.5 | > 10
